Reference: the supplement of paper PMC10307832

Columns and labels:
Experiment in all cases: relative viability (nuclei count vs DMSO), 5 days (fraction); higher = more cells survive
NCI-H2228 = tested on: NCI-H2228
Summary of the method: (§1)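 One day after seeding in 1536-well plates, lung cancer cell lines were dosed by pin tool. Dosing was either single-drug or a fixed anchor-drug dose plus five library-drug doses (not always all listed) in √10 steps. After 5 days, nuclei were stained in one fix-and-stain step and counted on 4× images, and relative viability is the nuclei count of treated wells over that of vehicle wells, given as the median of duplicate plates.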

NCI-H2087 = tested on: NCI-H2087
Summary of the method: as §1

LC-2-ad = tested on: LC-2-ad
Summary of the method: as §1

HCC-366 = tested on: HCC-366
Summary of the method: as §1

HCC-78 = tested on: HCC-78
Summary of the method: as §1

UMC-11 = tested on: UMC-11
Summary of the method: as §1

NCI-H1755 = tested on: NCI-H1755
Summary of the method: as §1

CAL-12T = tested on: CAL-12T
Summary of the method: as §1

NCI-H3122 = tested on: NCI-H3122
Summary of the method: as §1

PC-3 [JPC-3] = tested on: PC-3 [JPC-3]
Summary of the method: as §1

NCI-H1651 = tested on: NCI-H1651
Summary of the method: as §1

LOU-NH91 = tested on: LOU-NH91
Summary of the method: as §1

ChaGo-K-1 = tested on: ChaGo-K-1
Summary of the method: as §1

NCI-H460 = tested on: NCI-H460
Summary of the method: as §1

ABC-1 = tested on: ABC-1
Summary of the method: as §1

NCI-H1793 = tested on: NCI-H1793
Summary of the method: as §1

LU99A = tested on: LU99A
Summary of the method: as §1

NCI-H2170 = tested on: NCI-H2170
Summary of the method: as §1

NCI-H1395 = tested on: NCI-H1395
Summary of the method: as §1

NCI-H2405 = tested on: NCI-H2405
Summary of the method: as §1

NCI-H1944 = tested on: NCI-H1944
Summary of the method: as §1

RERF-LC-KJ = tested on: RERF-LC-KJ
Summary of the method: as §1

Nc1ccn([C@@H]2O[C@H](CO)[C@@H](O)[C@@H]2O)c(=O)n1 [Cytarabine] + Cc1cc(Nc2cc(N3CCN(C)CC3)nc(Sc3ccc(NC(=O)C4CC4)cc3)n2)n[nH]1 [Tozasertib] (partner 0.1 µM)
relative viability (NCI-H2228; first compound 0.005 µM): 0.144 | relative viability (NCI-H2228; first compound 0.01581 µM): 0.204 | relative viability (NCI-H2228; first compound 0.05 µM): 0.207 | relative viability (NCI-H2228; first compound 0.1581 µM): 0.0929 | relative viability (NCI-H2228; first compound 0.5 µM): 0.105 | relative viability (NCI-H2087; first compound 0.005 µM): 0.254 | relative viability (NCI-H2087; first compound 0.01581 µM): 0.25 | relative viability (NCI-H2087; first compound 0.05 µM): 0.234 | relative viability (NCI-H2087; first compound 0.1581 µM): 0.195 | relative viability (NCI-H2087; first compound 0.5 µM): 0.174 | relative viability (LC-2-ad; first compound 0.005 µM): 0.415 | relative viability (LC-2-ad; first compound 0.01581 µM): 0.452 | relative viability (LC-2-ad; first compound 0.05 µM): 0.418 | relative viability (LC-2-ad; first compound 0.1581 µM): 0.39 | relative viability (LC-2-ad; first compound 0.5 µM): 0.301 | relative viability (HCC-366; first compound 0.005 µM): 0.149 | relative viability (HCC-366; first compound 0.01581 µM): 0.119 | relative viability (HCC-366; first compound 0.05 µM): 0.0834 | relative viability (HCC-366; first compound 0.1581 µM): 0.0612 | relative viability (HCC-366; first compound 0.5 µM): 0.0652 | relative viability (HCC-78; first compound 0.005 µM): 0.518 | relative viability (HCC-78; first compound 0.01581 µM): 0.489 | relative viability (HCC-78; first compound 0.05 µM): 0.389 | relative viability (HCC-78; first compound 0.1581 µM): 0.333 | relative viability (HCC-78; first compound 0.5 µM): 0.253 | relative viability (UMC-11; first compound 0.005 µM): 0.261 | relative viability (UMC-11; first compound 0.01581 µM): 0.219 | relative viability (UMC-11; first compound 0.05 µM): 0.222 | relative viability (UMC-11; first compound 0.1581 µM): 0.231 | relative viability (UMC-11; first compound 0.5 µM): 0.2 | relative viability (NCI-H1755; first compound 0.005 µM): 0.492 | relative viability (NCI-H1755; first compound 0.01581 µM): 0.452 | relative viability (NCI-H1755; first compound 0.05 µM): 0.421 | relative viability (NCI-H1755; first compound 0.1581 µM): 0.273 | relative viability (NCI-H1755; first compound 0.5 µM): 0.344 | relative viability (CAL-12T; first compound 0.005 µM): 0.249 | relative viability (CAL-12T; first compound 0.01581 µM): 0.323 | relative viability (CAL-12T; first compound 0.05 µM): 0.27 | relative viability (CAL-12T; first compound 0.1581 µM): 0.303 | relative viability (CAL-12T; first compound 0.5 µM): 0.2 | relative viability (NCI-H3122; first compound 0.005 µM): 0.389 | relative viability (NCI-H3122; first compound 0.01581 µM): 0.407 | relative viability (NCI-H3122; first compound 0.05 µM): 0.299 | relative viability (NCI-H3122; first compound 0.1581 µM): 0.237 | relative viability (NCI-H3122; first compound 0.5 µM): 0.161 | relative viability (PC-3 [JPC-3]; first compound 0.005 µM): 0.726 | relative viability (PC-3 [JPC-3]; first compound 0.01581 µM): 0.826 | relative viability (PC-3 [JPC-3]; first compound 0.05 µM): 0.966 | relative viability (PC-3 [JPC-3]; first compound 0.1581 µM): 0.704 | relative viability (PC-3 [JPC-3]; first compound 0.5 µM): 0.665 | relative viability (NCI-H1651; first compound 0.005 µM): 0.688 | relative viability (NCI-H1651; first compound 0.01581 µM): 0.707 | relative viability (NCI-H1651; first compound 0.05 µM): 0.746 | relative viability (NCI-H1651; first compound 0.1581 µM): 0.577 | relative viability (NCI-H1651; first compound 0.5 µM): 0.206 | relative viability (LOU-NH91; first compound 0.005 µM): 0.555 | relative viability (LOU-NH91; first compound 0.01581 µM): 0.53 | relative viability (LOU-NH91; first compound 0.05 µM): 0.672 | relative viability (LOU-NH91; first compound 0.1581 µM): 0.411 | relative viability (LOU-NH91; first compound 0.5 µM): 0.514 | relative viability (ChaGo-K-1; first compound 0.005 µM): 0.188 | relative viability (ChaGo-K-1; first compound 0.01581 µM): 0.207 | relative viability (ChaGo-K-1; first compound 0.05 µM): 0.208 | relative viability (ChaGo-K-1; first compound 0.1581 µM): 0.16 | relative viability (ChaGo-K-1; first compound 0.5 µM): 0.149 | relative viability (NCI-H460; first compound 0.005 µM): 0.438 | relative viability (NCI-H460; first compound 0.01581 µM): 0.362 | relative viability (NCI-H460; first compound 0.05 µM): 0.196 | relative viability (NCI-H460; first compound 0.1581 µM): 0.0434 | relative viability (NCI-H460; first compound 0.5 µM): 0.0361 | relative viability (ABC-1; first compound 0.005 µM): 0.209 | relative viability (ABC-1; first compound 0.01581 µM): 0.176 | relative viability (ABC-1; first compound 0.05 µM): 0.174 | relative viability (ABC-1; first compound 0.1581 µM): 0.154 | relative viability (ABC-1; first compound 0.5 µM): 0.183 | relative viability (NCI-H1793; first compound 0.005 µM): 0.346 | relative viability (NCI-H1793; first compound 0.01581 µM): 0.32 | relative viability (NCI-H1793; first compound 0.05 µM): 0.333 | relative viability (NCI-H1793; first compound 0.1581 µM): 0.291 | relative viability (NCI-H1793; first compound 0.5 µM): 0.332 | relative viability (LU99A; first compound 0.005 µM): 0.263 | relative viability (LU99A; first compound 0.01581 µM): 0.273 | relative viability (LU99A; first compound 0.05 µM): 0.275 | relative viability (LU99A; first compound 0.1581 µM): 0.288 | relative viability (LU99A; first compound 0.5 µM): 0.281 | relative viability (NCI-H2170; first compound 0.005 µM): 0.605 | relative viability (NCI-H2170; first compound 0.01581 µM): 0.5 | relative viability (NCI-H2170; first compound 0.05 µM): 0.409 | relative viability (NCI-H2170; first compound 0.1581 µM): 0.386 | relative viability (NCI-H2170; first compound 0.5 µM): 0.26 | relative viability (NCI-H1395; first compound 0.005 µM): 0.703 | relative viability (NCI-H1395; first compound 0.01581 µM): 0.633 | relative viability (NCI-H1395; first compound 0.05 µM): 0.434 | relative viability (NCI-H1395; first compound 0.1581 µM): 0.447 | relative viability (NCI-H1395; first compound 0.5 µM): 0.388 | relative viability (NCI-H2405; first compound 0.005 µM): 0.66 | relative viability (NCI-H2405; first compound 0.01581 µM): 0.712 | relative viability (NCI-H2405; first compound 0.05 µM): 0.56 | relative viability (NCI-H2405; first compound 0.1581 µM): 0.429 | relative viability (NCI-H2405; first compound 0.5 µM): 0.371 | relative viability (NCI-H1944; first compound 0.005 µM): 0.211 | relative viability (NCI-H1944; first compound 0.01581 µM): 0.195 | relative viability (NCI-H1944; first compound 0.05 µM): 0.184 | relative viability (NCI-H1944; first compound 0.1581 µM): 0.149 | relative viability (NCI-H1944; first compound 0.5 µM): 0.114 | relative viability (RERF-LC-KJ; first compound 0.005 µM): 0.385 | relative viability (RERF-LC-KJ; first compound 0.01581 µM): 0.512 | relative viability (RERF-LC-KJ; first compound 0.05 µM): 0.353 | relative viability (RERF-LC-KJ; first compound 0.1581 µM): 0.393 | relative viability (RERF-LC-KJ; first compound 0.5 µM): 0.266
